Assay results from patent publication US9901549B2, “Method for treating vaginal dryness by administering transient receptor potential cation channel subfamily M member 8 (TRPM8) receptor agonists” (UNIVERSIDAD MIGUEL HERNÁNDEZ DE ELCHE, priority 2010, dated 2018).
Read-outs that look alike come from different tables or passages of the source.

What was measured:
TRPM8 channels [1] = biological target: T1, TRPM8 channels (Homo sapiens, UniProt Q7Z2W7); conditions: FL; data from Behrendt et al., 2004; cited from earlier work
[2] = test system: cold-sensitive nerve terminals of the mouse cornea; test: Nerve terminal impulse (NTI) activity recorded in vitro from cold-sensitive nerve terminals of the cornea
[3] = test system: cold-sensitive nerve terminals of the mouse cornea; test: as above; remark: listed apart in the source
Method: To define functionally the thermal sensitivity and encoding capacity of intact cold-sensitive nerve terminals, nerve terminal impulse (NTI) activity from the cornea of wild-type mice eyes was recorded ‘in vitro’ (Brock, J. A., et al., 1998. J. Physiol 512:211-217).
J. Neurosci. 26:12512-12525, Jordt, S. E. et al. 2004. Nature 427:260-265).

TRPM8 channels [4] = biological target: T1, TRPM8 channels; conditions: CI; data from Bodding et al., 2007; cited from earlier work
TRPM8 channels [5] = biological target: T1, TRPM8 channels; conditions: EP, cited from earlier work
[6] = test system: eyes of TRPM8(−/−) and wild type mice; test: Tear flow (phenol red thread) after topical application to the eye; format: in vivo, mouse; conditions: capsaicin 1 μM, AITC 500 μM
Method: FIG. 4. Dependence of tear secretion rate on corneal temperature. a. […] Shaded and filled columns represent tearing rate in animals at mean neutral (28.4° C.) or hot temperature (42.5° C.), respectively. The number of measures of successive columns is 35, 11, 23, 9 and 6 observations **p<0.01, ***p<0.001 Mann-Whitney test). b. Increase in tearing rate measured in wild type animals (black columns) and TRPM8−/−(grey columns) elicited by application during 60 s, of a filter paper soaked in capsaicin 1 μM (n=12 and 15) or 500 μM allyl-isothyocyanate. […] Measurements of tear secretion were performed 1 minute after removing the paper with the drug. Statistically significant differences were found with respect to baseline lacrimation, using the Wilcoxon test (*p<0.05, ***p<0.001). c. Mean tearing rate expressed as the wetted length value of the phenol red thread, measured in the eyes of 11 human volunteers at environment temperatures of 18° C., 25° C. and 43° C. that lead to corneal surface temperatures of 32.4±0.4° C.; 34.2±0.1° C. and 36.0±0.2° C. respectively.
Next, it was reasoned that if tear production is associated to the neural activity of cold thermoreceptor fibers, basal tear flow should be reduced in TRPM8(−/−) mice, in which spontaneous activity is absent.

native TRPM8 channel [7] = biological target: T2, native TRPM8 channel (Homo sapiens, UniProt Q7Z2W7); conditions: CI, cited from earlier work
native TRPM8 channel [8] = biological target: T2, native TRPM8 channel; conditions: EP, cited from earlier work
native TRPM8 channel [9] = biological target: T2, native TRPM8 channel; conditions: read-out: IC50 menthol; SF; 20 μM menthol at 22° C.; Ortar et al. 2010; cited from earlier work
native TRPM8 channel [10] = biological target: T2, native TRPM8 channel; conditions: read-out: IC50 menthol; 100 μM menthol; FL; Behrendt et al. 2004; cited from earlier work
[11] = cold, Malkia et al. 2007, read-out: IC50 cold
[12] = cold, +80 mV, Malkia et al. 2007, read-out: IC50 cold
[13] = read-out: IC50 menthol, 100 μM menthol, −70 mV, Weil 2005

T1 sequence (Q7Z2W7 whole entry): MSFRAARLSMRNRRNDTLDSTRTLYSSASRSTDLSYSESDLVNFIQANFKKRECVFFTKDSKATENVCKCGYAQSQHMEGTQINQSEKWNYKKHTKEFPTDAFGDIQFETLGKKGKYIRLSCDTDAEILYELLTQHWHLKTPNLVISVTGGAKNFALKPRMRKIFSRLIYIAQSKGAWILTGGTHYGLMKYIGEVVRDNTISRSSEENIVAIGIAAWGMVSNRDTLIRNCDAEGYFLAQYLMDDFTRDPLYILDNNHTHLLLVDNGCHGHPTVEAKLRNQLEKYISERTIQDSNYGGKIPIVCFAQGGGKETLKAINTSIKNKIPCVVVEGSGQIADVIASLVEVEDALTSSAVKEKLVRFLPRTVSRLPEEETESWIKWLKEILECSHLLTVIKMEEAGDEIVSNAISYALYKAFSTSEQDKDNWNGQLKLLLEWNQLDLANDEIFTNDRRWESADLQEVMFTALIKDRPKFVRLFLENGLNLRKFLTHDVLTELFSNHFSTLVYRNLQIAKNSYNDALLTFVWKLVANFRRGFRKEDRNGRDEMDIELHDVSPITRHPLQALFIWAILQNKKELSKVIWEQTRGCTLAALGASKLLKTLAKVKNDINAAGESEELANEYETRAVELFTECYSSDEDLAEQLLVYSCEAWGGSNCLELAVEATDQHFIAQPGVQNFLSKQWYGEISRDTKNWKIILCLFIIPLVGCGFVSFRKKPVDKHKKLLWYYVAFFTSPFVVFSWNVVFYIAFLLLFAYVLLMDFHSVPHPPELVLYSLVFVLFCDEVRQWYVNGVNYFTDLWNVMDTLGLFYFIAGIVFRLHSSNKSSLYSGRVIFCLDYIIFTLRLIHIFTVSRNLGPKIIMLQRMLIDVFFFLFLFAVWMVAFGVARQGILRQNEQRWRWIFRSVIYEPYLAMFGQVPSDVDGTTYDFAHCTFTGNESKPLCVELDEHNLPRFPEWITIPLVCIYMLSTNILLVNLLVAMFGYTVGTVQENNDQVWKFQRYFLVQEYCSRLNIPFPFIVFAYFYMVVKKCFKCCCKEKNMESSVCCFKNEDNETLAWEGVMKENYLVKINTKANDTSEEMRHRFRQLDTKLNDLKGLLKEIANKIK
T2 sequence (Q7Z2W7 whole entry): as above

CC(C)[C@@H]1CC[C@@H](C)CC12OCC(CO)O2 (mixture of isomers) [Frescolat MGA]
EC50 (TRPM8 channels [1]): 4.8 ± 1.1 µM

CC(C)[C@@H]1CC[C@@H](C)C[C@H]1OCC(O)CO (mixture of isomers) [Cooling Agent 10]
EC50 (TRPM8 channels [1]): 6 ± 2.2 µM

CC(C)[C@@H]1CC[C@@H](C)C[C@H]1O (relative stereo) [Menthol]
trigger frequency at basal temperature of 34° C. or during cooling ramps ([2]; 50 μM menthol perfusion, TRPM8(−/−) corneas, n=6): no increase | trigger frequency in basal temperature, cold threshold and peak frequency ([2]; menthol 50 μM, TRPM8(+/−) mice, significantly less than in TRPM8(+/+)): enhanced | percentage of terminals with a bursting firing pattern at 34° C. ([3]; during perfusion with menthol 50 μM, 5% before treatment): 44% | temperature of silencing during cooling ramps ([3]; menthol 50 μM, control 23.8±0.4): 25.2±0.4 °C | temperature at which peak frequency is reached during cooling ramps ([3]; menthol 50 μM, control 26.7±0.5, n=44): 28.6±0.5 °C | spontaneous activity ([3]; menthol 50 μM, from 3.4±0.3 before, n=44): 18.4±1.4 impulses/s | tested endings with increased spontaneous activity ([3]; menthol 50 μM, n=44): 98%

COc1ccc(NC(=O)[C@@H]2C[C@H](C)CC[C@H]2C(C)C)cc1 (stereo in doubt) [WS-12, 2-isopropyl-5-methyl-cyclohexanecarboxylic acid (4-methoxyphenyl)-amide]
EC50 (TRPM8 channels [4]): 0.193 µM | EC50 (TRPM8 channels [5]; data from Beck et al., 2007): 0.039 µM | EC50 (TRPM8 channels [5]; data from Bodding et al., 2007): 0.68 µM

C=CCN=C=S [AITC, allyl-isothiocyanate]
tear flow [6]: significantly increased | effect on spontaneous or cold-evoked activity ([3]; AITC 100 μM, 28 cold-sensitive nerve endings tested): failed to modify the spontaneous or cold-evoked activity in 24 of them | nerve endings with significant increase in trigger frequency at basal temperature ([3]; AITC 100 μM, of 28 endings tested): four

CC(C)(C)c1ccc(NC(=O)N2CCN(c3ncccc3Cl)CC2)cc1 [BCTC, N-(4-tert-butyl-phenyl)-4-(3-chloropyridin-2-yl) tetrahydropyrazine-1(2H)-carboxamide]
IC50 (native TRPM8 channel [7]; [11]): 0.68 ± 0.06 µM | IC50 (native TRPM8 channel [8]; [12]): 0.54 ± 0.04 µM | IC50 (native TRPM8 channel [8]; read-out: IC50 menthol, 100 μM menthol, +80 mV, modified by Madrid 2006): 0.34 ± 0.04 µM | spontaneous activity and trigger frequency of cold- and menthol-evoked discharges ([3]; BCTC 10 μM perfusion during 90 min): decreased gradually and almost silenced | effects of BCTC on nerve ending activity in TRPA1(−/−) mice ([3]; BCTC 10 μM, TRPA1(−/−) mice): also observed | decline in activity upon removal of the drug ([3]; after BCTC 10 μM removal): reversed partially

CCOC(=O)C(C)NC(=O)C1C[C@H](C)CC[C@H]1C(C)C (some centres unmarked) [CPS-369]
EC50 (TRPM8 channels [4]): 3.6 µM

C[C@@H]1CN(c2ncccc2Cl)CCN1C(=O)Nc1ccc(C(F)(F)F)cc1 [CTPC, (2R)-4-(3-chloro-2-pyridinyl)-2-methyl-N-[4-(trifluoromethyl)phenyl]-1-pyperazine-carboxamide]
IC50 (native TRPM8 channel [8]; [13]): 0.131 ± 0.014 µM

Oc1cc2c(cc1O)CN(C(=S)NCCc1ccc(Cl)cc1)CCC2 [Capsazepine, N-[2-(4-chlorophenyl)ethyl]-1,3,4,5-tetrahydro-7,8-dihydroxy-2H-2-benzazepine-2-carbothioamide]
IC50 (native TRPM8 channel [7]; cold, Malkia et al. 2009, read-out: IC50 cold): 12 ± 2 µM

Clc1ccccc1C(c1ccccc1)(c1ccccc1)n1ccnc1 [Clotrimazole, 1-[(2-chlorophenyl)diphenylmethyl]-1H-imidazol]
IC50 (native TRPM8 channel [8]; read-out: IC50 menthol, 100 μM menthol, +50 mV, Meseguer et al. 2008): 1.2 µM

Nc1ccncc1 [Compound 4-AP, 4-aminopyridine]
cold threshold of the endings ([3]; 4-AP 100 μM): no parallel changes | mean peak frequency of cold responses depressed ([3]; 4-AP 100 μM, n=9): 39±6 % of the control value | units with significantly increased spontaneous activity ([3]; 4-AP 100 μM, nine studied units): three out of nine

CC12CCC(CC1)C(C)(C)O2 [Eucalyptol]
EC50 (TRPM8 channels [1]): 7700 ± 2000 µM | EC50 (TRPM8 channels [5]; data from McKemy et al., 2002): 3400 ± 400 µM

CC(O)C(=O)O[C@@H]1C[C@H](C)CC[C@H]1C(C)C (some centres unmarked) [Frescolat ML]
EC50 (TRPM8 channels [1]): 3.3 ± 1.5 µM

CC(CC=O)CCCC(C)(C)O (centres unmarked) [Hydroxyl-citronellal]
EC50 (TRPM8 channels [1]): 19600 ± 2200 µM

C=C[C@@](C)(O)CCC=C(C)C [Linalool, Linallol]
EC50 (TRPM8 channels [1]): 6700 ± 2000 µM

CC(C)[C@@H]1CC[C@@H](C)C[C@H]1NC(=O)c1ccc(-c2ccccc2)cc1 [MAD1d, N-[(1R,2S,5R)-2-Isopropyl-5-methylcyclohexyl]biphenyl-4-carboxamide]
IC50 (native TRPM8 channel [9]): 0.02 ± 0.0024 µM

CC1CCC(C(C)(C)O)C(O)C1 (centres unmarked) [PMD-38, p-menthane-3,8-diol]
EC50 (TRPM8 channels [1]): 31 ± 1.1 µM

c1cnc2c(c1)ccc1cccnc12 [Phenanthroline]
IC50 (native TRPM8 channel [7]; [11]): 100 ± 20 µM | IC50 (native TRPM8 channel [8]; [12]): 180 ± 20 µM

CCN(CCNC(=O)Nc1ccccc1Br)c1cccc(C)c1 [SB-452533, N-(2-bhromophenyl)-N′-(2-[ethyl(3-methylphenyl)amino]ethyl)urea]
IC50 (native TRPM8 channel [8]; [13]): 0.571 ± 0.077 µM

COc1ccc(CCCOC(Cn2ccnc2)c2ccc(OC)cc2)cc1 (centres unmarked) [SKF96365]
IC50 (native TRPM8 channel [7]; [11]): 1 ± 0.2 µM | IC50 (native TRPM8 channel [7]; read-out: IC50 menthol, 100 μM menthol, modified by Madrid 2006): 3 ± 1 µM | IC50 (native TRPM8 channel [8]; [12]): 0.8 ± 0.1 µM

CCNC(=O)C1CC(C)CCC1C(C)C (centres unmarked) [WS-3, N-ethyl-p-menthane-3-carboxamide]
EC50 (TRPM8 channels [1]): 3.7 ± 1.7 µM

CC1CCC(C(C)C)C(C(=O)NC(C)(C)CO)C1 (centres unmarked) [WS-11, 2-isopropyl-5-methyl-cyclohexanecarboxylic acid (2-hydroxy-1,1-dimethyl-ethyl)-amide]
EC50 (TRPM8 channels [5]; data from Beck et al., 2007): 6.25 µM

CC1CCC(C(C)C)C(C(=O)NC(C)(C)C)C1 (centres unmarked) [WS-14, 2-isopropyl-5-methyl-cyclohexanecarboxylic acid tert-butylamide]
EC50 (TRPM8 channels [5]; data from Beck et al., 2007): 21.2 µM

CC1CCC(C(C)C)C(C(=O)OCC(O)CO)C1 (centres unmarked) [WS-30, 2-isopropyl-5-methyl-cyclohexanecarboxylic acid ester 2,3-dihydroxy-propyl]
EC50 (TRPM8 channels [4]): 5.6 µM

CCCCCCCP(=O)(C(C)CC)C(C)CC (centres unmarked) [WS-148, 1-(di-sec-butyl-phosphinoyl)-heptane]
EC50 (TRPM8 channels [4]): 4.1 µM

COc1cc(CNC(=O)CCCC/C=C/C(C)C)ccc1O [capsaicin]
impulse discharge evoked in active units ([2]; capsaicin 100 nM, TRPM8(−/−) corneas, six units tested): evoked a few impulses in two endings (5 and 8 impulses, respectively) and a vigorous, discharge lasting more than 30 s in another | tear flow [6]: significantly increased | cold-sensitive endings that responded ([3]; 100 nM capsaicin, wild-type mice): 65%

CC(C)(C)c1ccc(NC(=S)N2CCN(c3ncccc3Cl)CC2)cc1 [thio-BCTC, N-(4-tert-butyl-phenyl)-4-(3-chloropyridin-2-yl) tetrahydropyrazine-1(2H)-(thio)carboxamide]
IC50 (native TRPM8 channel [10]): 3.5 ± 1.1 µM
